According to patent US20200123127A1, “REMOVAL OF SENESCENCE-ASSOCIATED MACROPHAGES” (EVERON BIOSCIENCES, INC., priority 2016, published 2020):
“Also recorded” adds a separate entry of the source.

Tests used:
[1] = system: p16(Ink4a) expression in SAMs; assay: p16(Ink4a) promoter-dependent luciferase activity in alginate bead-elicited macrophages (SAMs) ex vivo; assay type: cell-based, mouse; settings: for Modulation of p16(Ink4a): SAMs: SAMs from NDF alginate beads, dose-response testing; for effect on luciferase activity (M1-inducing agents): IFN-γ 10 ng/mL, Poly(I:C) 10 μg/mL, IFN-α 100 U/mL, 72 hours
Procedure: (§1) FIG. 7. Immunomodulatory regulation of p16(Ink4a) and SAβG in macrophages. Peritoneal lavage cells elicited by alginate-encapsulated SCs from p16^Ink4a/Luc mice were treated ex vivo with immunomodulatory agents for 72 hours. A) p16 promoter-dependent luciferase activity (black bars) and […] activity (via 4-MUG hydrolysis) (gray bars) were measured following treatment with M1- and M2-polarizing stimuli: LPS at 1 ng/mL, IFN-γ at 10 ng/mL, LPS/IFN-γ co-treatment, Poly(I:C) at 10 μg/mL, IFN-α at 100 U/mL, IL-4 at 20 ng/mL, IL-13 at 10 ng/ml, and IL-4/IL-13 co-treatment. Results are shown as the mean±standard deviation for at least 3 independent experiments, with statistical significance between treated compared to non-treated samples depicted. B) Dose-dependent response of JAK1/2 inhibitor Ruxolitinib on luciferase activity in elicited macrophages in the presence (gray bars) or absence (black bars) of IL-4 (10 ng/mL) stimulation. Enzyme activities are expressed as the percent activity relative to non-treated (NT) controls per cell. Statistical significance between IL-4 stimulated and non-stimulated cells at each concentration of ruxolitinib is shown.
FIG. 8. Immunomodulatory regulation of p16(Ink4a) and SAβG in macrophages. Peritoneal lavage cells elicited by alginate-encapsulated SCs from p16^Ink4a/Luc mice were treated ex vivo with immunomodulatory agents for up to 72 hours. (A) mRNA expression of p16(Ink4a) and β-galactosidase (Glb1) in macrophages (relative to B2m expression) with or without LPS stimulation for 72 hours analyzed via qRT-PCR, normalized to non-treated controls. (B) Microphotograph of SAβG-stained adherence-selected macrophages with or without stimulation with LPS (1 ng/mL) for 72 hours (10× objective). (C&D) Kinetics of p16(Ink4a) promoter-dependent luciferase activity per cell with or without LPS stimulation (C) or IL-4 stimulation (D), normalized to activity from non-treated cells at time zero. Results are shown as the mean±standard deviation for at least 3 experiments. Statistical significance with respect to non-treated control at time zero is indicated. (E) Luciferase activity and (3-galactosidase activity (via 4-MUG hydrolysis) from proteose peptone-elicited lavage cells following stimulation with IL-4 (20 ng/mL) for 72 hours, normalized to non-treated controls. (F) Viability following 72 hour dose-response to JAK1/2 inhibitor Ruxolitinib in the presence or absence of IL-4 (10 ng/mL) stimulation, measured by CyQuant Direct DNA-based viability assay. Viability normalized to respective controls lacking Ruxolitinib. (G&H) Dose-response of STAT6 inhibitor AS1517499 against luciferase activity (G) and viability via CyQuant Direct assay (H) following 72 hour treatment in the presence and absence of IL-4 (10 ng/mL). Results normalized to respective controls (with or without IL-4) lacking STAT6 inhibitor. Statistical significance is calculated with respect to the difference between IL-4 stimulated and non-stimulated cells at each concentration of STAT6 inhibitor. (I) Relative luciferase activity per cell following repolarization with M1- and M2-inducing agents. Macrophages were left non-treated (NT) or treated with either LPS (1 ng/ml) or IL-4 (20 ng/ml) for 72 hours (days 1-3), as indicated. For each treatment set, samples were collected at 72 hours (no further treatment; days 4-6=x). Alternatively, cells were washed and placed in fresh medium (−), medium containing LPS (1 ng/mL) and IFN-γ (10 ng/mL), or medium containing IL-4 (20 ng/mL) and IL-13 (10 ng/mL) and incubated for an additional 72 hours prior to sample collection (as indicated for days 4-6). Luciferase activity is expressed as the percent activity per cell relative to non-treated (NT) controls after the first 72 hours.
Luciferase activity of cell lysates was accessed using Bright-Glo™ Luciferase Assay System (Promega; Madison, Wis.) according to manufacturer's instructions with minor modifications. […]

β-galactosidase in SAMs = assay: β-galactosidase activity (4-MUG hydrolysis) in alginate bead-elicited macrophages (SAMs) ex vivo; assay type: cell-based, mouse; settings: for β-galactosidase production by SAM cells (MUG assay): concentrations of 2.5 to 10 μM; for effect on β-gal activity (polarizing agents): 72 hours, IFN-γ 10 ng/mL, Poly(I:C) 10 μg/mL, IFN-α 100 U/mL, IL-4 20 ng/mL, IL-13 10 ng/ml
Procedure: as §1
FIG. 13. Effect of TA-4812 on β-gal expression and cell viability. Asenins TA-04812-1, was assayed for its effects on SAM viability, proliferation, and β-gal expression. SAM viability was determined using the resazurin cell viability assay (Res). Cell proliferation was assessed using the CyQuant assay (CyQUANT® Direct Cell proliferation Assay, ThermoFisher Scientific, Waltham, Mass., Catalog # C35011, performed according to manufacturer's instructions) (CyQ). β-gal production was assessed using the MUG assay, a quantitative assay to determine the level of β-gal expression using 4-methylumbelliferylgalactopyranoside (MUG) as substrate.
A fluorogenic substrate for β-galactosidase, 4-MUG (4-Methylumbelliferyl β-D-Galactopyranoside; Sigma-Aldrich), was used for the quantitation of enzymatic β-gal activity from cell lysates, assayed under β-gal^pH6 conditions (i.e. pH 6.0). In a 96-well white microplate, 5 μl of diluted cell lysate was combined with 45 μl of fluorogenic β-gal^pH6 reaction buffer: 1 mM 4-MUG in 100 mM citric acid/sodium phosphate buffer, pH 6.0, containing 2 mM MgCl2, 150 mM NaCl and 0.02% NP-40. Kinetics of product formation at room temperature was determined by measuring fluorescence (Ex/Em 360 nm/440 nm) of the reaction mixture at regular intervals over a 2-hour time period. Reaction endpoints were determined by addition of 150 μl of 700 mM sodium carbonate. The rate of reaction (RFU/min) for each sample was determined, and normalized per μg of protein.
To determine whether macrophage polarization regulates p16(Ink4a) and SAβG expression, peritoneal lavage from p16^Ink4a/Luc mice elicited by our alginate bead model were stimulated with M1- and M2-inducing agents and subsequently, luciferase activity (driven by endogenous p16(Ink4a) promoter) and β-galactosidase activity (assayed via 4-MUG hydrolysis) were measured (FIG. 7A). […] Consistently, LPS decreased the intensity of SAβG staining in treated macrophages. The response of macrophages to LPS was rapid, with a significant decrease in luciferase activity observed within 8 hours (˜40% decrease).
We investigated whether the mechanisms regulating the expression of these traits in macrophages were similar to those found in SCs. Using cells isolated from p16^Ink4a/Luc mice, the dose-dependent response of luciferase and β-galactosidase activities to immunomodulatory stimuli in macrophages was compared to that of proliferating and irradiation-induced senescent adipose-derived mesenchymal stromal cells. […] LPS stimulation of alginate bead model-elicited macrophages reduced luciferase activity, with maximal inhibition (˜85%) observed at concentrations ≥1 ng/mL (FIG. 10A). In addition, β-galactosidase activity was reduced by 40% at 10 ng/mL (FIG. 10B). […]

Molecule	Modulation of p16(Ink4a): SAMs [1]	effect on luciferase activity (M1-inducing agents) [1]	effect on β-gal activity (polarizing agents) (β-galactosidase in SAMs)	also measured
COc1ccc(C2CC(=NO)c3c(SCc4ccccc4)sc(C(=O)NCc4cccc(F)c4)c3C2)cc1 (stereo not shown) [Example A1.6, 3-(Benzylthio)-N-(3-fluorobenzyl)-4-(hydroxyimino)-6-(4-methoxyphenyl)-4,5,6,7-tetrahydrobenzo[c]thiophene-1-carboxamide]	decrease			β-galactosidase production by SAM cells (MUG assay) (β-galactosidase in SAMs; listed as TA-4812): reduce β-galactosidase production; β-galactosidase production by SAM cells (MUG assay) (β-galactosidase in SAMs; listed as TA-04812-1): reducing β-gal expression
O=C(NCCCc1cn[nH]c1)c1ccc(-c2ccncc2)c(C#Cc2ccc(F)cc2)c1 [OT-82]	decrease			expression of p16 (luciferase) in SAMs ([1]; OT-82, 500 nM): selectively decrease; also recorded: significantly downregulates; β-galactosidase expression/activity in SAMs (β-galactosidase in SAMs; OT-82, 500 nM): no effect; also recorded: little effect
IFN-α		decreased luciferase activity	without affecting β-gal activity	
IL-4: M2-polarizing cytokine	increase		without modulating β-gal activity	
IL-13: M2-polarizing cytokine	increase		without modulating β-gal activity	
Poly(I:C)	decrease	decreased luciferase activity	without affecting β-gal activity	luciferase activity, dose-response ([1]; 72 hr, selective to macrophages): dose-dependent decrease; β-galactosidase activity, dose-response (β-galactosidase in SAMs; Poly(I:C), 72 hr): no effect
IFN-γ: type II interferon, M1-inducing agent (protein, UniProt P01579 24-161, looked up) Interferon gamma: QDPYVKEAENLKKYFNAGHSDVADNGTLFLGILKNWKEESDRKIMQSQIVSFYFKLFKNFKDDQSIQKSVETIKEDMNVKFFNSNKKKRDDFEKLTNYSVTDLNVQRKAIHELIQVMAELSPAAKTGKRKRSQMLFRG		decreased luciferase activity	without affecting β-gal activity	
